From ChEMBL document CHEMBL4118021, “Studies of TAK1-centered polypharmacology with novel covalent TAK1 inhibitors” (Bioorg Med Chem, 2017)
Blank lines part the entries; values can stand above or below the compound they belong to. Activity calls are given as the source filed them. The rule behind the calls is not given here.

How the values were obtained:
[1] = target: Arginine--tRNA ligase, cytoplasmic (Homo sapiens) (UniProt P54136); assay: Binding affinity to RARS in human NCI-H358 cells at 1 uM by mass spectrometry based pull down assay; format: cell-based
[2] = target: Ribosomal protein S6 kinase alpha-1 (Homo sapiens) (UniProt Q15418); assay: Binding affinity to RPS6KA1 in human NCI-H358 cells at 1 uM by mass spectrometry based pull down assay; format: cell-based
[3] = target: Inter-alpha-trypsin inhibitor heavy chain H2 (Homo sapiens) (UniProt P19823); assay: Binding affinity to ITIH2 in human NCI-H23 cells at 1 uM by mass spectrometry based pull down assay; format: cell-based
[4] = target: Inosine-5'-monophosphate dehydrogenase 1 (Homo sapiens) (UniProt P20839); assay: Binding affinity to IMPDH1 in human NCI-H23 cells at 1 uM by mass spectrometry based pull down assay; format: cell-based
[5] = target: Dual specificity mitogen-activated protein kinase kinase 2 (Homo sapiens) (UniProt P36507); assay: Binding affinity to MAP2K2 in human NCI-H23 cells at 1 uM by mass spectrometry based pull down assay; format: cell-based
[6] = target: Small ribosomal subunit protein eS6 (Homo sapiens) (UniProt P62753); assay: Binding affinity to RPS6 in human NCI-H358 cells at 1 uM by mass spectrometry based pull down assay; format: cell-based
[7] = target: DNA replication licensing factor MCM6 (Homo sapiens) (UniProt Q14566); assay: Binding affinity to MCM6 in human NCI-H358 cells at 1 uM by mass spectrometry based pull down assay; format: cell-based
[8] = target: HCLS1-associated protein X-1 (Homo sapiens) (UniProt O00165); assay: Binding affinity to HAX1 in human NCI-H23 cells at 1 uM by mass spectrometry based pull down assay; format: cell-based
[9] = target: Acidic leucine-rich nuclear phosphoprotein 32 family member A (Homo sapiens) (UniProt P39687); assay: Binding affinity to ANP32A in human NCI-H358 cells at 1 uM by mass spectrometry based pull down assay; format: cell-based
[10] = target: Citrate synthase, mitochondrial (Homo sapiens) (UniProt O75390); assay: Binding affinity to CS in human NCI-H358 cells at 1 uM by mass spectrometry based pull down assay; format: cell-based
[11] = target: (E3-independent) E2 ubiquitin-conjugating enzyme (Homo sapiens) (UniProt Q9C0C9); assay: Binding affinity to UBE2O in human NCI-H358 cells at 1 uM by mass spectrometry based pull down assay; format: cell-based
[12] = target: Tropomyosin alpha-4 chain (Homo sapiens) (UniProt P67936); assay: Binding affinity to TPM4 in human NCI-H358 cells at 1 uM by mass spectrometry based pull down assay; format: cell-based
[13] = target: T1, 80S Ribosome (Homo sapiens) (UniProt P08865+P42677+P62753+P15880+P23396+P61247+P62701+P22090+P46782+P62081+P62241+P46781+P46783+P62280+P25398+P62277+P62263+P62841+P62244+P62249+P08708+P62269+P39019+P60866+P63220+P62266+P62847+P62851+P62854+P62979+P62857+P62273+P62861+P39023+P36578+P46777+Q02878+P18124+P62424+P62917+P32969+P27635+P62906+P62913+P30050+P26373+P40429+P50914+P61313+P18621+Q07020+Q02543+P84098+P46778+P35268+P62829+P62750+P83731+P61254+P61353+P46776+P46779+P47914+P62888+P62899+P62910+P49207+P42766+P18077+Q9Y3U8+P83881+P61927+P61513+P63173+P62891+P62945+P05388+P05386); assay: Binding affinity to RPS26 in human NCI-H23 cells at 1 uM by mass spectrometry based pull down assay; format: cell-based
[14] = target: UV radiation resistance-associated gene protein (Homo sapiens) (UniProt Q9P2Y5); assay: Binding affinity to UVRAG in human NCI-H358 cells at 1 uM by mass spectrometry based pull down assay; format: cell-based
[15] = target: T1, 80S Ribosome (Homo sapiens); assay: Binding affinity to RPL17 in human NCI-H23 cells at 1 uM by mass spectrometry based pull down assay; format: cell-based
[16] = target: 6-phosphogluconate dehydrogenase, decarboxylating (Homo sapiens) (UniProt P52209); assay: Binding affinity to PGD in human NCI-H358 cells at 1 uM by mass spectrometry based pull down assay
[17] = target: Src substrate cortactin (Homo sapiens) (UniProt Q14247); assay: Binding affinity to CTTN in human NCI-H23 cells at 1 uM by mass spectrometry based pull down assay; format: cell-based
[18] = target: TGF-beta-activated kinase 1 and MAP3K7-binding protein 2 (Homo sapiens) (UniProt Q9NYJ8); assay: Binding affinity to TAB2 in human NCI-H23 cells at 1 uM by mass spectrometry based pull down assay; format: cell-based
[19] = target: ATP-dependent 6-phosphofructokinase, liver type (Homo sapiens) (UniProt P17858); assay: Binding affinity to PFKL in human NCI-H358 cells at 1 uM by mass spectrometry based pull down assay; format: cell-based
[20] = target: RNA-binding protein 3 (Homo sapiens) (UniProt P98179); assay: Binding affinity to RBM3 in human NCI-H23 cells at 1 uM by mass spectrometry based pull down assay; format: cell-based
[21] = target: Trafficking protein particle complex subunit 5 (Homo sapiens) (UniProt Q8IUR0); assay: Binding affinity to TRAPPC5 in human NCI-H358 cells at 1 uM by mass spectrometry based pull down assay; format: cell-based
[22] = target: Clathrin light chain A (Homo sapiens) (UniProt P09496); assay: Binding affinity to CLTA in human NCI-H358 cells at 1 uM by mass spectrometry based pull down assay; format: cell-based
[23] = target: Calcyclin-binding protein (Homo sapiens) (UniProt Q9HB71); assay: Binding affinity to CACYBP in human NCI-H358 cells at 1 uM by mass spectrometry based pull down assay; format: cell-based
[24] = target: Pigment epithelium-derived factor (Homo sapiens) (UniProt P36955); assay: Binding affinity to SERPINF1 in human NCI-H23 cells at 1 uM by mass spectrometry based pull down assay; format: cell-based
[25] = target: Serine/threonine-protein kinase TBK1 (Homo sapiens) (UniProt Q9UHD2); assay: Inhibition of TBK1 in human SKCO1 cells at 1 uM after 4 hrs using biotin labeled TGDLFAIKVFNNISFLRPVDVQMR probe by mass-spectrometric analysis relative to control; format: cell-based
[26] = target: Serine/threonine-protein kinase 38 (Homo sapiens) (UniProt Q15208); assay: Inhibition of NDR1 in human SKCO1 cells at 1 uM after 4 hrs using biotin labeled DIKPDNLLLDSK probe by mass-spectrometric analysis relative to control; format: cell-based

Chain of Serine/threonine-protein kinase TBK1 (Homo sapiens) (Q9UHD2 whole entry): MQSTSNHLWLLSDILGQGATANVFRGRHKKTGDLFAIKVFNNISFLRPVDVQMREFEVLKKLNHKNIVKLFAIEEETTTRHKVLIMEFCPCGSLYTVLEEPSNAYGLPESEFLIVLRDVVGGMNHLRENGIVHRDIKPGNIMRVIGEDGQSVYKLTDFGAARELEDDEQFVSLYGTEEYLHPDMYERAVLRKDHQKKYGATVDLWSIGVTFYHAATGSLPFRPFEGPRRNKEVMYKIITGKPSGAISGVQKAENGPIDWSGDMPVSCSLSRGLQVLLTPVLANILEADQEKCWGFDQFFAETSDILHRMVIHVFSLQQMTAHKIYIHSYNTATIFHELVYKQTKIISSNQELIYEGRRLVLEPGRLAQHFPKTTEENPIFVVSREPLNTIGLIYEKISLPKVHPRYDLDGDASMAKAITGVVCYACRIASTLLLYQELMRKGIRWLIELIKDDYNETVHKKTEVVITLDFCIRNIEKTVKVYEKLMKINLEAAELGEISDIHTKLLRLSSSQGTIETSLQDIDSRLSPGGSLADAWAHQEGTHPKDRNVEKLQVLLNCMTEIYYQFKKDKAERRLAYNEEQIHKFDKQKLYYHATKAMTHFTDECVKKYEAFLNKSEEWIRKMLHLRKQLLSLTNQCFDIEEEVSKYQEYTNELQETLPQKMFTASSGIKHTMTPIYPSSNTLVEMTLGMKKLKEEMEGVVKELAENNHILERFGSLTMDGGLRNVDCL
Chain of Trafficking protein particle complex subunit 5 (Homo sapiens) (Q8IUR0 whole entry, one chain of several): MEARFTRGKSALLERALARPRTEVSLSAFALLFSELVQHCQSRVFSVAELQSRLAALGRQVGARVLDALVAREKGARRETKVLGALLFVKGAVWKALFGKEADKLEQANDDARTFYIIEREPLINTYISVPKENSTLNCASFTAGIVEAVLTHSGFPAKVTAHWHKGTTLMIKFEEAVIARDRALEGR
Chain of (E3-independent) E2 ubiquitin-conjugating enzyme (Homo sapiens) (Q9C0C9 whole entry): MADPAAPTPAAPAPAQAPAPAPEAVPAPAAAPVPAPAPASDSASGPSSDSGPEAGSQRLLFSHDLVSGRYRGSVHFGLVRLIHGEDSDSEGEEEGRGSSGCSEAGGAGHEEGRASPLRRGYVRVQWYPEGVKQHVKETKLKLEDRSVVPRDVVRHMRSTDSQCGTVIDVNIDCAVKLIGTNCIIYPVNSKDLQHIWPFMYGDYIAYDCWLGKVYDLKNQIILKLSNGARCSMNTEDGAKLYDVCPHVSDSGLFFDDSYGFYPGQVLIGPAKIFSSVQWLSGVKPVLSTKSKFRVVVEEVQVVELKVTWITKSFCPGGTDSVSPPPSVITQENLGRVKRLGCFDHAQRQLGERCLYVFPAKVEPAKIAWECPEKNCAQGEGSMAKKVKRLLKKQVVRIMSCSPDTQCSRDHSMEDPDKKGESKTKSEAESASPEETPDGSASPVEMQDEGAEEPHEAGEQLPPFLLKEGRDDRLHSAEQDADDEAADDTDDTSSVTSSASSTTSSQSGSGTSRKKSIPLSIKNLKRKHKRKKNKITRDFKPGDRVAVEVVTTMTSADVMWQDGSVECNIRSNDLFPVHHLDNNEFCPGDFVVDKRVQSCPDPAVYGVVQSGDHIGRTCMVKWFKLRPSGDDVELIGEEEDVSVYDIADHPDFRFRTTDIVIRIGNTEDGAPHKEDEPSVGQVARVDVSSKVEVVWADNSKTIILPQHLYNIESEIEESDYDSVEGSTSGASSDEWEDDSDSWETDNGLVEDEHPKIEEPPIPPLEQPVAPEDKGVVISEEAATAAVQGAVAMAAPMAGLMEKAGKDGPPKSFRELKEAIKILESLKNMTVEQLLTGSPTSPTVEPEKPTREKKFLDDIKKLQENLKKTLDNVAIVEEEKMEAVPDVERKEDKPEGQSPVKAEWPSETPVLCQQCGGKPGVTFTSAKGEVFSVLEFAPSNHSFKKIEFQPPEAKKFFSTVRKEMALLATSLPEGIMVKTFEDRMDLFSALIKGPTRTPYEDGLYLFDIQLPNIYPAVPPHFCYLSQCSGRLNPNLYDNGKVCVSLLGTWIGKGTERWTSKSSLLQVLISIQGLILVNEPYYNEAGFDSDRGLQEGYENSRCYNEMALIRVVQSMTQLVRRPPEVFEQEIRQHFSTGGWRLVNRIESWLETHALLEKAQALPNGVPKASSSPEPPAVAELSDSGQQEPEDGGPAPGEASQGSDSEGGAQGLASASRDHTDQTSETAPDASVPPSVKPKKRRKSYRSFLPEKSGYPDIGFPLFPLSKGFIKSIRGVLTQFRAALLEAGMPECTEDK
Chain of Arginine--tRNA ligase, cytoplasmic (Homo sapiens) (P54136 whole entry): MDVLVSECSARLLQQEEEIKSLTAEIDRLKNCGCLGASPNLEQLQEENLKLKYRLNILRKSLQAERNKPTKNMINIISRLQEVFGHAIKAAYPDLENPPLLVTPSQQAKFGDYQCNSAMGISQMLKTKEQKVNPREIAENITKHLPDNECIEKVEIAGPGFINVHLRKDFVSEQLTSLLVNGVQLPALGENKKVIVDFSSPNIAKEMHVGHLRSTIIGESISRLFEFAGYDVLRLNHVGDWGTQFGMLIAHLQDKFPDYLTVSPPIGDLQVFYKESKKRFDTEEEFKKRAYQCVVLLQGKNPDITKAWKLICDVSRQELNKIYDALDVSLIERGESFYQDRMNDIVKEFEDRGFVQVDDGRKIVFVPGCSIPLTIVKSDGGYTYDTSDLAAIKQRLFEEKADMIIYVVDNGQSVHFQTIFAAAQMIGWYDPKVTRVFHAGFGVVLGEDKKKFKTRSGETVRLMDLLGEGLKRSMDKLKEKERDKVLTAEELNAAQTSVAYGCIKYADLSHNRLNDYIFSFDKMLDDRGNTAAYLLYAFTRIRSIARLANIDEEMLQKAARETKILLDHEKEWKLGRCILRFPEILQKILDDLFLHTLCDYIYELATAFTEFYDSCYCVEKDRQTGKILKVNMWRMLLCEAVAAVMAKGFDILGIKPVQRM
Chain of TGF-beta-activated kinase 1 and MAP3K7-binding protein 2 (Homo sapiens) (Q9NYJ8 whole entry): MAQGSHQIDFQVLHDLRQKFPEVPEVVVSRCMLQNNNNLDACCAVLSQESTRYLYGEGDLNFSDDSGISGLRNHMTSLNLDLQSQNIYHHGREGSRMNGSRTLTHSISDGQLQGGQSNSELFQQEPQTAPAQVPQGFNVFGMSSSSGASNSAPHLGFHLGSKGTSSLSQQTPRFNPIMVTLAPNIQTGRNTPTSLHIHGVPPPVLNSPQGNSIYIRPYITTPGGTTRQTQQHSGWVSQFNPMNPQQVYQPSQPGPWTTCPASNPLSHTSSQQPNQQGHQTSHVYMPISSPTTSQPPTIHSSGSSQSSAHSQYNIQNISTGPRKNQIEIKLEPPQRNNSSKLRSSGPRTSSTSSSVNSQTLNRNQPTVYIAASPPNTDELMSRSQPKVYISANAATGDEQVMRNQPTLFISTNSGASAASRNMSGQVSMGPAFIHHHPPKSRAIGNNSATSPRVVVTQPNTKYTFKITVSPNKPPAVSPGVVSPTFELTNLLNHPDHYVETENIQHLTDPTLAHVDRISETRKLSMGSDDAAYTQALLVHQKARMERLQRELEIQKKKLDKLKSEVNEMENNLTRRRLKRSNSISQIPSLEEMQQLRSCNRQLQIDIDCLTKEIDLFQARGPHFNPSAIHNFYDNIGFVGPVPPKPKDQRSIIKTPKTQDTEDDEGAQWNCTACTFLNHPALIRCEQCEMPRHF
Chain of Src substrate cortactin (Homo sapiens) (Q14247 whole entry): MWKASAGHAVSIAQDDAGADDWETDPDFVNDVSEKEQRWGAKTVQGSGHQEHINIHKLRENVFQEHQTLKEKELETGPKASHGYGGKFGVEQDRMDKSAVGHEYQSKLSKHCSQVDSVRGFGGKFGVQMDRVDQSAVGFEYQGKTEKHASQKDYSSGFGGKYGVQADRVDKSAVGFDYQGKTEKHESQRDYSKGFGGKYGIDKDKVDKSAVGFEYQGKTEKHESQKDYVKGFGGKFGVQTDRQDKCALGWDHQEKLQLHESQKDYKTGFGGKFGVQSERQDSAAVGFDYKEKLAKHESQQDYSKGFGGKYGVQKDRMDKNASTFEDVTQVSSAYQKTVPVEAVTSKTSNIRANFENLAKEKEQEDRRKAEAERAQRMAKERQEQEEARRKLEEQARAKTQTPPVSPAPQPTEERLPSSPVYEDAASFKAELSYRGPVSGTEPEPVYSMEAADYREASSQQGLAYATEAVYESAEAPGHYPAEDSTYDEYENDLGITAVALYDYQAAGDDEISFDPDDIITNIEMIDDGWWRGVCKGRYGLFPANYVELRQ
Chain of Calcyclin-binding protein (Homo sapiens) (Q9HB71 whole entry): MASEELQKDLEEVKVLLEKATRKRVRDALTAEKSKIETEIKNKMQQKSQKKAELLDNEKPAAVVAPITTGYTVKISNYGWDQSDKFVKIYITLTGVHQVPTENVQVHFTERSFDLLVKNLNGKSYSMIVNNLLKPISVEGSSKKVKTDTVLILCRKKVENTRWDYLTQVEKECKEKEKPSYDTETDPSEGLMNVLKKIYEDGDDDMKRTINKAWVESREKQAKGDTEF
Chain of Tropomyosin alpha-4 chain (Homo sapiens) (P67936 whole entry): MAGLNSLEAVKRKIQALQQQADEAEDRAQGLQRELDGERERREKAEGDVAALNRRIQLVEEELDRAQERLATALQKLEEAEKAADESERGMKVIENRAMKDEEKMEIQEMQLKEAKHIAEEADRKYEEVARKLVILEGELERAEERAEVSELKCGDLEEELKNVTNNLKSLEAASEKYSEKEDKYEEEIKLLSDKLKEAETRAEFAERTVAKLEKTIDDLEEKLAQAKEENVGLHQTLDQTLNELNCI
Chain of RNA-binding protein 3 (Homo sapiens) (P98179 whole entry): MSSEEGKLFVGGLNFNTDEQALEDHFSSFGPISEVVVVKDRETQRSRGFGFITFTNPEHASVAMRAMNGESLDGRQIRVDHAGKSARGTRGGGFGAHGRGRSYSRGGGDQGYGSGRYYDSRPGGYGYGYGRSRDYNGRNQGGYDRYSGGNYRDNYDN
Chain of Clathrin light chain A (Homo sapiens) (P09496 whole entry): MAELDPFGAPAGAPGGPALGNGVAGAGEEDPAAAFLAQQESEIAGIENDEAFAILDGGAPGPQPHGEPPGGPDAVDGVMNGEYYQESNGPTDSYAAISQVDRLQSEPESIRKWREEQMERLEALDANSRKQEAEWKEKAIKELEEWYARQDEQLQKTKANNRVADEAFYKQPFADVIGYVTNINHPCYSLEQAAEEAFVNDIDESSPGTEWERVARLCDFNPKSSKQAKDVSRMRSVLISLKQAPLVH

- Activity [1]: Active
- Activity [2]: Active
- Activity [3]: Active
- Activity [4]: Active
- Activity [5]: Active
- Activity [6]: Active
- Activity [7]: Active
- Activity [8]: Active
- Activity [9]: Active
- Activity [10]: Active
- Activity [11]: Active
- Activity [12]: Active
- Activity [13]: Active
- Activity [14]: Active
- Activity [15]: Active
- Activity [16]: Active
- Activity [17]: Active
- Activity [18]: Active
- Activity [19]: Active
- Activity [20]: Active
- Activity [21]: Active
- Activity [22]: Active
- Activity [23]: Active
- Activity [24]: Active
Compound: C=CC(=O)Nc1ccccc1Nc1nc(Nc2ccc(N3CCN(CCOCCOCCOCCNC(=O)CCCC[C@@H]4SC[C@@H]5NC(=O)N[C@@H]54)CC3)cc2)ncc1Cl

Compound: C=CC(=O)Nc1ccccc1Nc1nc(Nc2ccc(N3CCN(C)CC3)cc2)ncc1Cl
- inhibition [25]: 61%
- inhibition [26]: -4.9%
